Experimental data: ChEMBL document CHEMBL1129234, “Synthesis of phosphorus-containing amino acid analogs as inhibitors of nitric oxide synthase” (Bioorg Med Chem Lett, 1996)

Experiments:
[1] = target: T1, Nitric oxide synthase, inducible (Mus musculus, UniProt P29477); assay: Compound was tested in vitro for inhibitory activity against inducible nitric oxide synthase
T1 sequence (P29477 whole entry): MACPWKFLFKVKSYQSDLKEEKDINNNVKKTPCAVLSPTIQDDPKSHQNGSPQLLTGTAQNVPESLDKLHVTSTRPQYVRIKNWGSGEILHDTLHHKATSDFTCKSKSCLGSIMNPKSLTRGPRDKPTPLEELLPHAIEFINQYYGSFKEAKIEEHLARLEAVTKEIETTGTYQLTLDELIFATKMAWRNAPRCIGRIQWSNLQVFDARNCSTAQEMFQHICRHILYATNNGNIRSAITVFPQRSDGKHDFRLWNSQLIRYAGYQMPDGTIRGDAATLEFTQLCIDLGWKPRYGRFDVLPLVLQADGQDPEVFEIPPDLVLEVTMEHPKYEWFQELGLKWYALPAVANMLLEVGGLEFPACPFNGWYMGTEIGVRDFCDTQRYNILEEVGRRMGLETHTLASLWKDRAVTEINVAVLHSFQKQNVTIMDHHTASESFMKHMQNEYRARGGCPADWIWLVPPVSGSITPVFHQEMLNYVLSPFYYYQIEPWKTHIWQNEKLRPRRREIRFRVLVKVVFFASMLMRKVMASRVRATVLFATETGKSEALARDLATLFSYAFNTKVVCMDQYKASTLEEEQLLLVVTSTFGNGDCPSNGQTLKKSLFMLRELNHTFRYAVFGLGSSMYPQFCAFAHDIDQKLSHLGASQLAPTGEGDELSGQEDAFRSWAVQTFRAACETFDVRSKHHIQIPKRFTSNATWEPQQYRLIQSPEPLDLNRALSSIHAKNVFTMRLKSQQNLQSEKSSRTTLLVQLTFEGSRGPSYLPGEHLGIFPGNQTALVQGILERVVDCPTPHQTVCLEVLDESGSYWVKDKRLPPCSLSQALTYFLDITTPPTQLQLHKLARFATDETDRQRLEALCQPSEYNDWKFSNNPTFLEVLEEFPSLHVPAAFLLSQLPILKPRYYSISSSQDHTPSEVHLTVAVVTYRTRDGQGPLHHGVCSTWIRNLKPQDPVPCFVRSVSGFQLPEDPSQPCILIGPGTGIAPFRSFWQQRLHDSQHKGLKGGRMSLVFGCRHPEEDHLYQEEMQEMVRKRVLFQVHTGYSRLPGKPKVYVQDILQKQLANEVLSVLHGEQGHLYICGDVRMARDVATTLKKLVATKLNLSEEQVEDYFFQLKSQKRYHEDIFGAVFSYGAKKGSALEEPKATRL

Nitric oxide synthase 1 = Nitric oxide synthase 1 (Rattus norvegicus, UniProt P29476); assay: Compound was tested in vitro for inhibitory activity against nNOS (constitutive isoform found in neurons)
Nitric oxide synthase 1, sequence (P29476 whole entry, canonical isoform): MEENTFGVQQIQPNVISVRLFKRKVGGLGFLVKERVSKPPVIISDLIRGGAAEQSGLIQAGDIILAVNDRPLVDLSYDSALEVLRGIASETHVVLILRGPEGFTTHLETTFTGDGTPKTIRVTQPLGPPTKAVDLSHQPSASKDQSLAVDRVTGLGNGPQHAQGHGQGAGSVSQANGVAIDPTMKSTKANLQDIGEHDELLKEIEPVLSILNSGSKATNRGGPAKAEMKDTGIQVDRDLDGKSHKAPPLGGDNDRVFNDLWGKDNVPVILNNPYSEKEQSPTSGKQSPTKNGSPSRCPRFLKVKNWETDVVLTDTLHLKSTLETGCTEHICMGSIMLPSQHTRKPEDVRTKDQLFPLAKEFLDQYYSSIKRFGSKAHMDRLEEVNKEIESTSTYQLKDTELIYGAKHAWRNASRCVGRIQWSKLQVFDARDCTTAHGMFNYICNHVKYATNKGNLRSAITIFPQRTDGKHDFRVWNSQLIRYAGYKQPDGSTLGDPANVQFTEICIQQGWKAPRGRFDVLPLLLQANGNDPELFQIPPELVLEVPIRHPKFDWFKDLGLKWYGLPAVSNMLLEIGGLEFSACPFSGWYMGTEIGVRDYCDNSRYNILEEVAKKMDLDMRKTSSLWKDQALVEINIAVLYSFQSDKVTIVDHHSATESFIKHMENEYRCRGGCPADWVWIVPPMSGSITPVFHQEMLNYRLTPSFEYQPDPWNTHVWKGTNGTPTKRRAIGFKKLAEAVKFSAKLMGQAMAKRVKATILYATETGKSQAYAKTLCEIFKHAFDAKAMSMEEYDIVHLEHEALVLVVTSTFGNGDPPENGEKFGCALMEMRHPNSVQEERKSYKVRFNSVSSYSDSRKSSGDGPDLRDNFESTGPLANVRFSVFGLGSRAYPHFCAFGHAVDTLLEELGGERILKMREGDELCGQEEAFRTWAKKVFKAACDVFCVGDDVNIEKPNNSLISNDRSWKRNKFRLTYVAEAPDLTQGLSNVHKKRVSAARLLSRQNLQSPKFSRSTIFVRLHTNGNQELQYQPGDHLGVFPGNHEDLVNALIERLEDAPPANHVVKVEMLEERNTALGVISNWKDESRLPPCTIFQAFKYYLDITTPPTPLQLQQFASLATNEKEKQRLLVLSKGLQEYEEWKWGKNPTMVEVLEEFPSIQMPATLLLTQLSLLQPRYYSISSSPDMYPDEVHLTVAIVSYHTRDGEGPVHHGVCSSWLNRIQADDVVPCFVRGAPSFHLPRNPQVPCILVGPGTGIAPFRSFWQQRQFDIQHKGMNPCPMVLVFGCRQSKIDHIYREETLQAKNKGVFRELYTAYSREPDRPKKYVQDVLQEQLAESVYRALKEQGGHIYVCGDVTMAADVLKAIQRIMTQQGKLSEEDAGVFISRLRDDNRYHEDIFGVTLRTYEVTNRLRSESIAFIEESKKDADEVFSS

SMILES	IC50 [1] [µM]	IC50 (Nitric oxide synthase 1) [µM]
N=C(NCCC[C@H](N)C(=O)O)N[N+](=O)[O-] [NITROARGININE]	10	
CNC(=N)NCCCC(N)P(=O)(O)O (stereo not drawn)	> 100	> 100
N/C(=N/CCCC(N)[PH](=O)O)N[N+](=O)[O-] (stereo not drawn)	> 100	45
NC(N)=NCCCC(N)[PH](=O)O (stereo not drawn)	> 100	> 100
N=C(N)NCCCC(N)P(=O)(O)O (stereo not drawn)	> 100	> 100
CNC(=N)NCCCC(N)[PH](=O)O (stereo not drawn)	> 100	100
N/C(=N/CCCC(N)P(=O)(O)O)N[N+](=O)[O-] (stereo not drawn)	> 100	> 100
